smiles,measurement,setting,value
"C/C=C/C=C/C(=O)[O-].[K+] [Potassium sorbate, potassium sorbate]",change in zeta potential,"as potassium sorbate concentration is increased (0.0001% to 10%), no added sodium chloride",less negative
same,effect on the zeta potential,concentrations below approximately 0.01%,no effect
